What was measured:
[1] = biological target: T1, 5-hydroxytryptamine receptor 1A (Homo sapiens, UniProt P08908); assay: Binding affinity against cloned human 5-hydroxytryptamine 1A receptor
T1 sequence (P08908 whole entry): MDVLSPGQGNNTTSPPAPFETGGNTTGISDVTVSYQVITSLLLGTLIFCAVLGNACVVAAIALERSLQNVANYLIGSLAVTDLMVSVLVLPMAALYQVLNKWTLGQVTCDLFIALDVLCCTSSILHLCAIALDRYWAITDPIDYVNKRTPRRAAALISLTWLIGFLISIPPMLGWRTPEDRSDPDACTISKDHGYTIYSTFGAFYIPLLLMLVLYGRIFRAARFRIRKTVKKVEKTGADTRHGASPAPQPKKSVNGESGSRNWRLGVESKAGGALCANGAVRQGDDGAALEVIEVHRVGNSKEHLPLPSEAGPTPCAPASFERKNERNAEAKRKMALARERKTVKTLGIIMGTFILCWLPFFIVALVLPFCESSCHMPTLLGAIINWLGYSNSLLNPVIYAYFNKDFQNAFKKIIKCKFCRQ

[2] = biological target: T2, 5-hydroxytryptamine receptor 1B (Homo sapiens, UniProt P28222); assay: Binding affinity against cloned human 5-hydroxytryptamine 1B receptor
T2 sequence (P28222 whole entry): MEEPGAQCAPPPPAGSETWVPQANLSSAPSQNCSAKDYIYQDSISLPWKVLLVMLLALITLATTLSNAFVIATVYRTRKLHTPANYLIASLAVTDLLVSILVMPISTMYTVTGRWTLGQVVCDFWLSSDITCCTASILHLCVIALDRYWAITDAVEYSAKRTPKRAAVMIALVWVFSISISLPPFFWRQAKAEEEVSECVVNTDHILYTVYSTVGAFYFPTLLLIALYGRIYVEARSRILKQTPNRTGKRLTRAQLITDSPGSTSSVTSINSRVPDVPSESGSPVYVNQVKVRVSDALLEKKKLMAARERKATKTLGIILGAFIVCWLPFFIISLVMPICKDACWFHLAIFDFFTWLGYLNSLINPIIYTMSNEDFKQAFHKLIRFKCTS

[3] = biological target: T3, 5-hydroxytryptamine receptor 1D (Homo sapiens, UniProt P28221); assay: Binding affinity against cloned human 5-hydroxytryptamine 1D receptor
T3 sequence (P28221 whole entry): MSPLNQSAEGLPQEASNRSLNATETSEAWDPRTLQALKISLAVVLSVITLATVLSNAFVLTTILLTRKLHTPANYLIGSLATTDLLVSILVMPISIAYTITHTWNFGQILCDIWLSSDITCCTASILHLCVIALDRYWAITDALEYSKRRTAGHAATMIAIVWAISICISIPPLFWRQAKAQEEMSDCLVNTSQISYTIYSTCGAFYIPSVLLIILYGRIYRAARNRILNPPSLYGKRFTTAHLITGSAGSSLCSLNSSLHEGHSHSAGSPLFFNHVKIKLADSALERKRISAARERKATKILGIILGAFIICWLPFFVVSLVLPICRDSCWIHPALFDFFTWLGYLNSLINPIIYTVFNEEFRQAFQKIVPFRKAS

[4] = species on record: Homo sapiens; assay: Selectivity towards human 5-hydroxytryptamine 1B receptor to that of 5-hydroxytryptamine 1A receptor
[5] = biological target: Serotonin 1 receptors; 5-HT1B & 5-HT1D (Homo sapiens) (UniProt P28222+P28221); assay: Selectivity towards human 5-hydroxytryptamine 1B receptor to that of 5-hydroxytryptamine 1D receptor; format: protein assay
[6] = biological target: T2, 5-hydroxytryptamine receptor 1B; assay: Intrinsic activity for human 5-hydroxytryptamine 1B receptor
[7] = biological target: T3, 5-hydroxytryptamine receptor 1D; assay: Intrinsic activity for human 5-hydroxytryptamine 1D receptor
[8] = species on record: Rattus norvegicus; assay: Intrinsic clearance from rat liver microsomes; format: ADME, Microsome
[9] = Intrinsic clearance from human liver microsomes; format: ADME, Microsome

What does the source list for `CN1CCN(c2cc3c(cc2Cl)CCN3C(=O)Nc2ccc(-c3ccncc3)c3ccccc23)CC1`?
Ki [1]: 0.00398 µM; Ki [2]: 0.00398 µM; Ki [3]: 0.001 µM; Selectivity [4]: 1; Selectivity [5]: 0.25

For `COc1cc2c(cc1N1C[C@@H](C)N[C@@H](C)C1)N(C(=O)c1ccc(-c3cc(C)ncc3C)cc1)CC2`, which Intrinsic activity [6] is on record?
The Intrinsic activity was 0.

And the Ki [2]?
Its Ki is 0.00794 µM.

And the Ki [3]?
The Ki was 0.501 µM.

With `COc1cc2c(cc1N1C[C@@H](C)N[C@@H](C)C1)N(C(=O)c1ccc(-c3ccc(N4CCCC4=O)nc3C)cc1)CC2` as the molecule, how does the Intrinsic activity [6] read?
The Intrinsic activity was 0.

And the Ki [2]?
The Ki was 0.00501 µM.

And the Ki [3]?
The Ki was 0.398 µM.

What does the source list for `COc1cc2c(cc1N1C[C@@H](C)N(C)[C@@H](C)C1)N(C(=O)Cc1cccc(C(F)(F)F)c1F)CC2`?
Intrinsic activity [6]: 0.1; Ki [2]: 0.00158 µM; Ki [3]: 0.126 µM

For `COc1cc2c(cc1N1C[C@@H](C)N(C)[C@@H](C)C1)N(C(=O)c1ccc(-c3ccc(-c4noc(C)n4)cc3C)cc1)CC2`, which Ki [2] is on record?
The Ki was 0.00501 µM.

And the Ki [3]?
The Ki was 0.0158 µM.

Which Intrinsic activity [6] does the source give for `COc1cc2c(cc1N1C[C@@H](C)N(C)[C@@H](C)C1)N(C(=O)c1ccc(-c3ccccc3C)cc1)CC2` here?
The Intrinsic activity was 0.

What about the Ki [2] of the same molecule?
Its Ki is 0.000631 µM.

What about the Ki [3] of the same molecule?
The Ki was 0.0158 µM.

With `COc1cc2c(cc1N1C[C@@H](C)N(C)[C@@H](C)C1)N(C(=O)Cc1cccc([N+](=O)[O-])c1)CC2` as the molecule, how does the Intrinsic activity [6] read?
Its Intrinsic activity is 0.1.

And the Intrinsic activity [7]?
Its Intrinsic activity is 0.2.

And the Ki [1]?
Its Ki is 2 µM.

And the Ki [2]?
The Ki was 0.0158 µM.

What about the Ki [3] of the same molecule?
Its Ki is 0.251 µM.

And the Selectivity [4]?
Its Selectivity is 125.

And the Selectivity [5]?
Its Selectivity is 15.

Which results are given for `COc1cc2c(cc1N1C[C@@H](C)N(C)[C@@H](C)C1)N(C(=O)c1cccc(Cl)c1Cl)CC2`?
Ki [2]: 0.0126 µM; Ki [3]: 0.251 µM

Which results are given for `COc1cc2c(cc1N1C[C@@H](C)N(C)[C@@H](C)C1)N(C(=O)Nc1cccc(Cl)c1F)CC2`?
Intrinsic activity [6]: 0.1; Ki [2]: 0.00794 µM; Ki [3]: 0.2 µM

Which results are given for `COc1cc2c(cc1N1C[C@@H](C)N[C@@H](C)C1)N(C(=O)c1ccc(-c3cccc(C)n3)c3ccccc13)CC2`?
Intrinsic clearance [8]: 12 mL/min/g; Intrinsic clearance [9]: 14 mL/min/g; Ki [1]: 1 µM; Ki [2]: 0.0501 µM; Ki [3]: 0.126 µM; Selectivity [4]: 21; Selectivity [5]: 2.8

With `COc1cc2c(cc1N1C[C@@H](C)N(C)[C@@H](C)C1)N(C(=O)Oc1cccc(C(F)(F)F)c1F)CC2` as the molecule, how does the Intrinsic activity [6] read?
The Intrinsic activity was 0.1.

And the Ki [2]?
Its Ki is 0.00251 µM.

What about the Ki [3] of the same molecule?
The Ki was 0.0316 µM.

Which results are given for `COc1cc2c(cc1N1C[C@@H](C)N(C)[C@@H](C)C1)N(C(=O)Oc1cccc(C(F)(F)F)c1Cl)CC2`?
Intrinsic activity [6]: 0.15; Ki [2]: 0.00251 µM; Ki [3]: 0.0251 µM

With `CCN1[C@H](C)CN(c2cc3c(cc2OC)CCN3C(=O)c2ccc(-c3cccc(C)n3)c3ccccc23)C[C@@H]1C` as the molecule, how does the Intrinsic clearance [8] read?
Its Intrinsic clearance is 45 mL/min/g.

What about the Intrinsic clearance [9] of the same molecule?
Its Intrinsic clearance is 47 mL/min/g.

What about the Ki [1] of the same molecule?
The Ki was 0.501 µM.

And the Ki [2]?
The Ki was 0.00398 µM.

What about the Ki [3] of the same molecule?
Its Ki is 0.126 µM.

What about the Selectivity [4] of the same molecule?
Its Selectivity is 110.

What about the Selectivity [5] of the same molecule?
Its Selectivity is 28.

Which Intrinsic activity [6] does the source give for `COc1cc2c(cc1N1C[C@@H](C)N[C@@H](C)C1)N(C(=O)c1ccc(-c3ccc(-c4noc(C)n4)cc3C)cc1)CC2` here?
Its Intrinsic activity is 0.

What about the Ki [2] of the same molecule?
Its Ki is 0.00316 µM.

And the Ki [3]?
Its Ki is 0.251 µM.

With `COc1cc2c(cc1N1C[C@@H](C)N(C)[C@@H](C)C1)N(C(=O)Cc1cccc(F)c1C(F)(F)F)CC2` as the molecule, how does the Intrinsic activity [6] read?
The Intrinsic activity was 0.1.

And the Ki [2]?
Its Ki is 0.00316 µM.

What about the Ki [3] of the same molecule?
Its Ki is 0.2 µM.

Which Intrinsic activity [6] does the source give for `COc1cc2c(cc1N1C[C@@H](C)N(C)[C@@H](C)C1)N(C(=O)Nc1cccc(Cl)c1Cl)CC2` here?
Its Intrinsic activity is 0.1.

What about the Intrinsic activity [7] of the same molecule?
Its Intrinsic activity is 0.1.

What about the Intrinsic clearance [8] of the same molecule?
The Intrinsic clearance was 3 mL/min/g.

What about the Intrinsic clearance [9] of the same molecule?
The Intrinsic clearance was 3 mL/min/g.

And the Ki [2]?
The Ki was 0.00794 µM.

And the Ki [3]?
The Ki was 0.0794 µM.

What about the Selectivity [4] of the same molecule?
The Selectivity was 200.

What about the Selectivity [5] of the same molecule?
The Selectivity was 10.

Which results are given for `COc1cc2c(cc1N1C[C@@H](C)N(C)[C@@H](C)C1)N(C(=O)c1ccc(-c3cccc(C)n3)c3ccccc13)CC2`?
Intrinsic activity [6]: 0.3; Intrinsic clearance [8]: 46 mL/min/g; Intrinsic clearance [9]: 34 mL/min/g; Ki [1]: 0.501 µM; Ki [2]: 0.00316 µM; Ki [3]: 0.1 µM; Selectivity [4]: 160; Selectivity [5]: 30

For `COc1cc2c(cc1N1C[C@@H](C)N(C)[C@@H](C)C1)N(C(=O)Cc1cccc(Cl)c1F)CC2`, which Intrinsic activity [6] is on record?
Its Intrinsic activity is 0.1.

What about the Ki [2] of the same molecule?
The Ki was 0.002 µM.

What about the Ki [3] of the same molecule?
The Ki was 0.1 µM.

Which Ki [2] does the source give for `COc1cc2c(cc1N1C[C@@H](C)N[C@@H](C)C1)N(C(=O)c1ccc(-c3ccc(C(C)=O)cc3C)cc1)CC2` here?
The Ki was 0.00316 µM.

And the Ki [3]?
Its Ki is 0.398 µM.

Which Ki [1] does the source give for `COc1cc2c(cc1N1CCN(C)CC1)N(C(=O)Cc1cccc([N+](=O)[O-])c1)CC2` here?
The Ki was 0.158 µM.

What about the Ki [2] of the same molecule?
The Ki was 0.00794 µM.

What about the Ki [3] of the same molecule?
Its Ki is 0.0316 µM.

And the Selectivity [4]?
Its Selectivity is 20.

And the Selectivity [5]?
Its Selectivity is 4.

Which Intrinsic activity [6] does the source give for `COc1cc2c(cc1N1CCN(C)CC1)N(C(=O)Nc1cccc(Cl)c1Cl)CC2` here?
Its Intrinsic activity is 0.6.

What about the Intrinsic activity [7] of the same molecule?
The Intrinsic activity was 0.7.

What about the Ki [1] of the same molecule?
The Ki was 0.0501 µM.

And the Ki [2]?
Its Ki is 0.00398 µM.

And the Ki [3]?
Its Ki is 0.0126 µM.

And the Selectivity [4]?
The Selectivity was 13.

What about the Selectivity [5] of the same molecule?
Its Selectivity is 3.

Which Intrinsic activity [6] does the source give for `COc1cc2c(cc1N1CCN(C)CC1)N(C(=O)c1ccc(-c3cccc(C)n3)c3ccccc13)CC2` here?
The Intrinsic activity was 0.9.

What about the Intrinsic activity [7] of the same molecule?
The Intrinsic activity was 0.9.

And the Ki [1]?
The Ki was 0.0126 µM.

And the Ki [2]?
The Ki was 0.002 µM.

And the Ki [3]?
The Ki was 0.0251 µM.

And the Selectivity [4]?
Its Selectivity is 6.

And the Selectivity [5]?
The Selectivity was 12.

What does the source list for `CCCN1[C@H](C)CN(c2cc3c(cc2OC)CCN3C(=O)c2ccc(-c3cccc(C)n3)c3ccccc23)C[C@@H]1C`?
Ki [1]: 0.0794 µM; Ki [2]: 0.0316 µM; Ki [3]: 0.158 µM; Selectivity [4]: 2; Selectivity [5]: 4.7

Which Intrinsic activity [6] does the source give for `COc1cc2c(cc1N1C[C@@H](C)N(C)[C@@H](C)C1)N(C(=O)Nc1cccc(C(F)(F)F)c1F)CC2` here?
The Intrinsic activity was 0.

And the Ki [2]?
The Ki was 0.00398 µM.

What about the Ki [3] of the same molecule?
The Ki was 0.158 µM.

With `COc1cc2c(cc1N1C[C@@H](C)N(C)[C@@H](C)C1)N(C(=O)c1cccc(Cl)c1)CC2` as the molecule, how does the Ki [2] read?
Its Ki is 0.02 µM.

What about the Ki [3] of the same molecule?
The Ki was 0.251 µM.

Which results are given for `COc1cc2c(cc1N1C[C@@H](C)N[C@@H](C)C1)N(C(=O)c1ccc(-c3ccc(-c4ncccn4)cc3C)cc1)CC2`?
Ki [2]: 0.00501 µM; Ki [3]: 0.251 µM

Which results are given for `COc1cc2c(cc1N1C[C@@H](C)N(C)[C@@H](C)C1)N(C(=O)Nc1cccc(C(F)(F)F)c1Cl)CC2`?
Intrinsic activity [6]: 0; Ki [2]: 0.00251 µM; Ki [3]: 0.0501 µM

From ChEMBL document CHEMBL1143456, “Identification of a potent and selective 5-HT1B receptor antagonist” (Bioorg Med Chem Lett, 2005)
